Experimental data from patent US12162858B2, “Quinoline derivatives as inhibitors of AXL/MER RTK and CSF1R” (QURIENT CO., LTD., priority 2018, dated 2024).
Read-outs that look alike come from different tables or passages of the source.

Experiments:
CSF1R [1] = target: T1, CSF1R (Homo sapiens, UniProt P07333); test: KINOMEscan competition binding assay for CSF1R; design: DNA tag for qPCR (not a peptide); host or cells: E. coli/T7 phage or HEK-293; settings: @ 0.1 uM
Method in brief: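 Values are either % inhibition at 0.1 uM, relative to DMSO (100% Ctrl) and a control compound (0% Ctrl), or Kd from an 11-point 3-fold series fitted with Hill slope −1. DNA-tagged kinase binds immobilized ligand beads with compound for 1 h at room temperature, and eluted kinase is measured by qPCR.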

CSF1R [2] = target: T1, CSF1R; test: Cellular CSF1R inhibition ELISA (p-CSF1R, M-CSF-induced) using THP-1 cells; format: cell-based; design: THP-1 cells act as a model for human monocytes; endogenous in cells; host or cells: THP-1
Method in brief: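 THP-1 cells (2×10^5/well, RPMI/10% FBS) were treated with compound, 10 doses in 3-fold steps, for 24 h at 37 °C in 0.2% DMSO final. They were then stimulated 5 min with human M-CSF (10 ng/ml final) and lysed. p-CSF1R was read by sandwich ELISA (HRP/TMB), with a sigmoidal dose-response fit.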

[3] = read-out: CSF1R kinase binding activity, Percent (%) inhibition
[4] = read-out: CSF1R kinase binding activity, Range

T1 sequence (P07333 20-972): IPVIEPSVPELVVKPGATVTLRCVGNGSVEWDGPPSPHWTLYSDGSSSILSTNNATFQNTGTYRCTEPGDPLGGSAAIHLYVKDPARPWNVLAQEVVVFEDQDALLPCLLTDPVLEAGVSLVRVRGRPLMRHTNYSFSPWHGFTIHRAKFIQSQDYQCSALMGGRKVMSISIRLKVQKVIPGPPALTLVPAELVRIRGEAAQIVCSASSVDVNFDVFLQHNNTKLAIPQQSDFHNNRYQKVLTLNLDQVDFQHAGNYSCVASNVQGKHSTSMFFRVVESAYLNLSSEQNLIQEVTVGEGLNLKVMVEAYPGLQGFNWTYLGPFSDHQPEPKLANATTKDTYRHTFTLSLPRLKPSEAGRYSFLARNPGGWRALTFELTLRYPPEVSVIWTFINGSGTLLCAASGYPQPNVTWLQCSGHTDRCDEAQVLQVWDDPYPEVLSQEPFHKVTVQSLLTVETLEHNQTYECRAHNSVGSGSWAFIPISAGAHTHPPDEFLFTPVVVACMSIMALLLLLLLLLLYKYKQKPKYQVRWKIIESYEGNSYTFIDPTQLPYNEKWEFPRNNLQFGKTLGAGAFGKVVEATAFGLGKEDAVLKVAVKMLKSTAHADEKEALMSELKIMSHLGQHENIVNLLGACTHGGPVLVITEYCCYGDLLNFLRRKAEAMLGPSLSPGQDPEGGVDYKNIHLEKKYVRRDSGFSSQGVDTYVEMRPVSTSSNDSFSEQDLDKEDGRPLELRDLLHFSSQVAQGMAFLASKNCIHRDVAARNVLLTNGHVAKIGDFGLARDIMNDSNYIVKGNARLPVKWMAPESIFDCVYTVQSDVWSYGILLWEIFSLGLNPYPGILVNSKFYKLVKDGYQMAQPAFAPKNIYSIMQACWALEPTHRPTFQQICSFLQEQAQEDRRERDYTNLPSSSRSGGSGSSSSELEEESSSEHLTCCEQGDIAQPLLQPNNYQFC

Row | inhibition at 0.1 µM (CSF1R [1]; [3]) | inhibition at 0.1 µM (CSF1R [1]; [4]) | IC50 (CSF1R [2]) | SMILES
1 | 64% | 50 to 80% | ≥ 1000 nM | CCCn1cc(OCC2CNC2)c(C(=O)Nc2ccc(Oc3ccnc4cc(OC)c(OC)cc34)cn2)n1 [Compound 159]
2 | 25% | < 50% | ≥ 1000 nM | CNCCOc1cn(C2CC2)nc1C(=O)Nc1ccc(Oc2ccnc3cc(OC)c(OC)cc23)nn1 [Compound 160]
3 | 14% | < 50% | ≥ 1000 nM | COc1cc2nccc(Oc3ccc(NC(=O)c4nn(C5CC5)cc4OCC4COC4)nn3)c2cc1OC [Compound 161]
4 | 91% | ≥ 80% | < 500 nM | COc1cc2nccc(Oc3ccc(NC(=O)c4nn(C5CC5)cc4OCC(F)F)nn3)c2cc1OC [Compound 162]
5 | 93% | ≥ 80% | 500 to 1000 nM | COc1cc2nccc(Oc3ccc(NC(=O)c4nn(CC(C)O)cc4OCC4CCC4)nc3)c2cc1OC (stereo not drawn) [Compound 163]
6 | 73% | 50 to 80% | ≥ 1000 nM | CCCn1cc(OCC2CCOCC2)c(C(=O)Nc2ccc(Oc3ccnc4cc(OC)c(OC)cc34)cn2)n1 [Compound 164]
7 | 5% | < 50% | ≥ 1000 nM | CCCn1cc(OCCN(C)C)c(C(=O)Nc2ccc(Oc3ccnc4cc(OC)c(OC)cc34)c(F)c2)n1 [Compound 165]
